The text below walks through data of ChEMBL document CHEMBL3745634, “Synthesis, cyclooxygenase inhibition, anti-inflammatory evaluation and ulcerogenic liability of new 1,3,5-triarylpyrazoline and 1,5-diarylpyrazole derivatives as selective COX-2 inhibitors” (Bioorg Med Chem Lett, 2016).

Calls of active or inactive are those of the source. No cut-off for these calls is given here.

In series [1] the target is T1, Prostaglandin G/H synthase 1 (Ovis aries, UniProt P05979).
T1 sequence (P05979 whole entry): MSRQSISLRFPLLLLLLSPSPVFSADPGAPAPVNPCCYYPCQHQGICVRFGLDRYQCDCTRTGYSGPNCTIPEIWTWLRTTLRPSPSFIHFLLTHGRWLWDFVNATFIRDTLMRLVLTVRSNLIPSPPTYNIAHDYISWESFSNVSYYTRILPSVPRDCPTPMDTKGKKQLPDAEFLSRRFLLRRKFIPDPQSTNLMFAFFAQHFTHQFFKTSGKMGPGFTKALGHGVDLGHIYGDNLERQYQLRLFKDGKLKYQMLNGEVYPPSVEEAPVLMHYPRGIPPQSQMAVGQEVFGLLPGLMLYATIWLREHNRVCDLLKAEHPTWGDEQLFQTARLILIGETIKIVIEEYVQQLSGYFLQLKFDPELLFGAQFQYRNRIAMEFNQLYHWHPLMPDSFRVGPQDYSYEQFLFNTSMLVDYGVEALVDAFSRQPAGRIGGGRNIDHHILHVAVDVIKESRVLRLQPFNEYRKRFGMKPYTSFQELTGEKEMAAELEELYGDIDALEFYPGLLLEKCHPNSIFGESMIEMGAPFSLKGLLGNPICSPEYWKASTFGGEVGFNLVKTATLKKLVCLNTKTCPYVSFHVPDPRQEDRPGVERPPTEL
The series is described as follows: Inhibition of ovine COX1 by enzyme immuno assay.

Series [2] relates to Rattus norvegicus. As to the kind of experiment: Antiinflammatory activity in po dosed formalin-induced rat foot paw edema model assessed as paw thickness after 3 hrs. Format: functional.
The subject of series [3] is Rattus norvegicus. As to the kind of experiment: Ulcerogenic activity in po dosed formalin-induced rat foot paw edema model assessed as ulcer index at antiinflammatory ED50. Format: toxicity, organism-based. Conditions: in vivo.
Series [4] has as its system Rattus norvegicus. The series is described as follows: Ulcerogenic activity in formalin-induced rat foot paw edema model assessed as ulcer index at 120 umol/kg, po. Format: toxicity, organism-based. Conditions: in vivo.

In general, IC50 refers to the point on the concentration scale where inhibition reaches its midpoint. As usually defined, the ED50 is the midpoint of the dose-response relation. In series [1], `NS(=O)(=O)c1ccc(N2N=C(c3cccs3)CC2c2ccc(C(F)(F)F)cc2)cc1` (configuration not stated) registered a half-maximal inhibitory concentration (IC50) of 5.74 µM. In the series on Rattus norvegicus [2], the 50% effective dose (ED50) was 99 µmol/kg. The UI with Rattus norvegicus [3] was 3.8.

As for `COc1cc(C2CC(c3ccco3)=NN2c2ccc(S(N)(=O)=O)cc2)cc(OC)c1OC` (configuration not stated), the IC50 in series [1] is 7.36 µM. Also, in the series with Rattus norvegicus [2], the median effective dose (ED50) stood at 179 µmol/kg. For the same molecule, the UI in the series with Rattus norvegicus [3] is 2.7.

With `CC(C)Cc1ccc(C(C)C(=O)O)cc1` (configuration not stated) [IBUPROFEN], the UI with Rattus norvegicus [4] is reported as 20.25. Besides, the ED50 in the series on Rattus norvegicus [2] was found to be 499 µmol/kg.

As to `NS(=O)(=O)c1ccc(N2N=C(c3ccco3)CC2c2ccccc2)cc1` (configuration not stated), in series [1], it took 10.2 µM to reach half-maximal inhibition (IC50). Also, the 50% effective dose (ED50) in the series on Rattus norvegicus [2] stood at 238 µmol/kg. In the series on Rattus norvegicus [3], the UI stood at 4.6.

With `NS(=O)(=O)c1ccc(N2N=C(c3ccco3)CC2c2ccc(Cl)cc2)cc1` (configuration not stated), the IC50 in series [1] is 4.66 µM. Further, the ED50 in the series with Rattus norvegicus [2] came to 404 µmol/kg. In addition, in the series on Rattus norvegicus [3], the UI is on record as 4.12.

In series [1], `NS(=O)(=O)c1ccc(N2N=C(c3ccco3)CC2c2ccc(C(F)(F)F)cc2)cc1` (configuration not stated) showed an IC50 of 2.14 µM. The ED50 result with Rattus norvegicus [2] is “inactive”. For the same molecule, in the series with Rattus norvegicus [3], the UI was found to be 1.2.

In series [1], `NS(=O)(=O)c1ccc(N2N=C(c3cccs3)CC2c2cccs2)cc1` (configuration not stated) yielded a half-maximal inhibitory concentration (IC50) of 16.4 µM. Further, the ED50 in the series with Rattus norvegicus [2] is 144 µmol/kg. The UI with Rattus norvegicus [3] is 2.7.

In series [1], `COc1ccc(C2CC(c3cccs3)=NN2c2ccc(S(N)(=O)=O)cc2)cc1` (configuration not stated) displayed an IC50 of 11.7 µM. In addition, the ED50 in the series on Rattus norvegicus [2] is 204 µmol/kg. For the same molecule, in the series with Rattus norvegicus [3], the UI came to 2.97.

As to `NS(=O)(=O)c1ccc(N2N=C(c3cccs3)CC2c2ccco2)cc1` (configuration not stated), in series [1], 14.6 µM corresponded to half-maximal inhibition (IC50). Moreover, the ED50 with Rattus norvegicus [2] came to 209 µmol/kg. The UI in the series on Rattus norvegicus [3] came to 4.15.

`NS(=O)(=O)c1ccc(N2N=C(c3ccco3)CC2c2ccco2)cc1` (configuration not stated) had an IC50 in series [1] of 9.65 µM. Besides, the 50% effective dose (ED50) in the series on Rattus norvegicus [2] worked out at 383 µmol/kg. In addition, in the series with Rattus norvegicus [3], the UI is given as 1.2.

Take `Cc1ccc(-c2cc(C(F)(F)F)nn2-c2ccc(S(N)(=O)=O)cc2)cc1` [CELECOXIB]: the 50% effective dose (ED50) with Rattus norvegicus [2] came to 47 µmol/kg. The UI in the series on Rattus norvegicus [3] is recorded as 2.9.

For `NS(=O)(=O)c1ccc(N2N=C(c3cccs3)CC2c2ccc(Cl)cc2)cc1` (configuration not stated), the IC50 in series [1] came to 8.71 µM. Besides, in the series with Rattus norvegicus [2], the ED50 is 197 µmol/kg. For the same molecule, in the series on Rattus norvegicus [3], the UI was 2.82.

On to `COc1cc(C2CC(c3cccs3)=NN2c2ccc(S(N)(=O)=O)cc2)cc(OC)c1OC` (configuration not stated), for which the concentration for half-maximal inhibition (IC50) in series [1] came out at 13.4 µM. In the series on Rattus norvegicus [2], the ED50 was 382 µmol/kg.

Regarding `COc1ccc(C2CC(c3ccco3)=NN2c2ccc(S(N)(=O)=O)cc2)cc1` (configuration not stated), in series [1], it took 6.74 µM to reach half-maximal inhibition (IC50). In addition, in the series on Rattus norvegicus [2], the ED50 was determined as 232 µmol/kg. In addition, the UI in the series on Rattus norvegicus [3] amounted to 3.13.

As to `NS(=O)(=O)c1ccc(N2N=C(c3ccco3)CC2c2cccs2)cc1` (configuration not stated), the half-inhibitory concentration (IC50) in series [1] amounted to 12.3 µM. In addition, the median effective dose (ED50) in the series on Rattus norvegicus [2] came out at 469 µmol/kg. Further, in the series on Rattus norvegicus [3], the UI is 3.03.
